Measurements: patent US12667572B2, “Tricyclic compounds useful in the treatment of cancer, autoimmune and inflammatory disorders” (SCHRÖDINGER, INC., priority 2021, dated 2026)

Target: T1, full-length MALT1 protein His-MALT1(1-824) (Homo sapiens, UniProt Q9UDY8)
T1 construct: full-length MALT1 protein His-MALT1(1-824); His (N); made in house; host or cells: baculovirus-infected insect cells
T1 sequence (Q9UDY8 1-824): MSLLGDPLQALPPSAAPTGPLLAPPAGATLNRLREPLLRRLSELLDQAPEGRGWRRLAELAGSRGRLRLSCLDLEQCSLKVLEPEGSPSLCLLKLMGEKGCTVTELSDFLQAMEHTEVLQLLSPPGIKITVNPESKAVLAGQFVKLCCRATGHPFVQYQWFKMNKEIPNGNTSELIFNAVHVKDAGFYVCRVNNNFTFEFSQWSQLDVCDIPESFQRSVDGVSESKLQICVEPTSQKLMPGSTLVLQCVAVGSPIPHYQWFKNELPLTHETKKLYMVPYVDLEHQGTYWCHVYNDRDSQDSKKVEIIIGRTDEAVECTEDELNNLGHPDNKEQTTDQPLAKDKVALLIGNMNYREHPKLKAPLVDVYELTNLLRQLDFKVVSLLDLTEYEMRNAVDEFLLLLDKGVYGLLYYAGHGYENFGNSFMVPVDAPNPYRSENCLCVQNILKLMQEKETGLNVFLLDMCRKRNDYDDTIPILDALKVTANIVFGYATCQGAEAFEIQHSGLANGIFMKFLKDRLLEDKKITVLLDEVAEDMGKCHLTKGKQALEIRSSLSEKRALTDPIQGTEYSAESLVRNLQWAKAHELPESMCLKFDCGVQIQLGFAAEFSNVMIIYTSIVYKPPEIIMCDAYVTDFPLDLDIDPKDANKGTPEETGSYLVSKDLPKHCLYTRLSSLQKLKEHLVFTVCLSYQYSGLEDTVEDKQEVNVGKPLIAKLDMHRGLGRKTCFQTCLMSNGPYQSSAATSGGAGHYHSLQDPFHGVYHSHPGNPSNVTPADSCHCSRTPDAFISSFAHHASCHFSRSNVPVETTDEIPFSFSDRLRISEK
Assay: MALT1 protease assay, Assay 2 (1 nM MALT1, Ac-LRSR-AMC substrate)
Type: biochemical
Conditions: 1 nM MALT1, 50 μM Ac-LRSR-AMC, 2 h pre-incubation, 8 hr incubation at RT
Outline: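 Compounds (0.1% DMSO final) sat 2 h at RT with insect-cell-expressed His-MALT1(1-824), in 50 mM Tris pH 7.5, 600 mM sodium citrate, 1 mM DTT, 1 mM EDTA, 0.05% BSA. Cleavage of 50 μM Ac-LRSR-AMC (Km ~100 μM) ran 8 h at RT, read as AMC fluorescence. IC50 and Hill coefficient fitted to % remaining activity.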

Compound | IC50 [nM]
O=C(Nc1cnc(-n2nccn2)c(C(F)(F)F)c1)C1CC2(CC2)c2c1cnc1cc(Cl)nn21 (single isomer, unassigned) [Example 148, N-(6-(2H-1,2,3-triazol-2-yl)-5-(trifluoromethyl)pyridin-3-yl)-2-chloro-6,7-dihydrospiro[cyclopenta[e]pyrazolo[1,5-a]pyrimidine-8,1′-cyclopropane]-6-carboxamide] | ≥ 1000
CC1(C)C[C@@H](C(=O)Nc2cnc(-n3nccn3)c(C(F)(F)F)c2)c2cnc3cc(F)nn3c21 (single isomer, unassigned) [Example 150, N-(6-(2H-1,2,3-triazol-2-yl)-5-(trifluoromethyl)pyridin-3-yl)-2-fluoro-8,8-dimethyl-7,8-dihydro-6H-cyclopenta[e]pyrazolo[1,5-a]pyrimidine-6-carboxamide] | 10 to 100
CC(C)(O)c1ncc(NC(=O)[C@H]2CC3(CCC3)c3c2cnc2cc(F)nn32)cc1C(F)(F)F (single isomer, unassigned) [Example 152, 2′-fluoro-N-(6-(2-hydroxypropan-2-yl)-5-(trifluoromethyl)pyridin-3-yl)-6′,7′-dihydrospiro[cyclobutane-1,8′-cyclopenta[e]pyrazolo[1,5-a]pyrimidine]-6′-carboxamide] | 100 to 1000
C[C@@H](O)c1cnn(-c2ncc(NC(=O)[C@@H]3CC4(CCC4)c4c3cnc3cc(Cl)nn43)cc2Cl)n1 (single isomer, unassigned) [Example 161] | ≥ 1000
CCO[C@@]1(C(F)(F)F)C[C@@H](C(=O)Nc2cnc(-n3nccn3)c(Cl)c2)c2cnc3cc(Cl)nn3c21 (single isomer, unassigned) [Example 167, (cis)-2-chloro-N-(5-chloro-6-(2H-1,2,3-triazol-2-yl)pyridin-3-yl)-8-ethoxy-8-(trifluoromethyl)-7,8-dihydro-6H-cyclopenta[e]pyrazolo[1,5-a]pyrimidine-6-carboxamide] | 100 to 1000
CCO[C@@]1(C(F)(F)F)C[C@H](C(=O)Nc2cnc(-n3nccn3)c(Cl)c2)c2cnc3cc(Cl)nn3c21 (single isomer, unassigned) [Example 168, (trans)-2-chloro-N-(5-chloro-6-(2H-1,2,3-triazol-2-yl)pyridin-3-yl)-8-ethoxy-8-(trifluoromethyl)-7,8-dihydro-6H-cyclopenta[e]pyrazolo[1,5-a]pyrimidine-6-carboxamide] | 100 to 1000
CC1(C)C[C@@H](C(=O)Nc2cnc(C(=O)NC3CC3)c(C(F)F)c2)c2cnc3cc(Cl)nn3c21 (single isomer, unassigned) [Example 172] | ≥ 1000
CC1(C)C[C@H](C(=O)Nc2cnc(C(=O)NC3CC3)c(C(F)F)c2)c2cnc3cc(Cl)nn3c21 (single isomer, unassigned) [Example 173] | 10 to 100
Cc1cc(NC(=O)[C@@H]2CC(C)(C)c3c2cnc2cc(Cl)nn32)cnc1-n1nccn1 (single isomer, unassigned) [Example 180] | ≥ 1000
Cc1cc(NC(=O)[C@@H]2CC(C)(C)c3c2cnc2cc(Cl)nn32)cnc1-n1nccn1 (single isomer, unassigned) [Example 181] | 10 to 100
Cc1cc(NC(=O)[C@@H]2CC(C)(C)c3c2cnc2cc(F)nn32)cnc1-n1nccn1 (single isomer, unassigned) [Example 182] | ≥ 1000
C[C@]1(C(F)(F)F)C[C@@H](C(=O)Nc2cnc(-n3nccn3)c(Cl)c2)c2cnc3cc(F)nn3c21 (single isomer, unassigned) [Example 184] | 100 to 1000
C[C@@]1(C(F)(F)F)C[C@@H](C(=O)Nc2cnc(-n3nccn3)c(Cl)c2)c2cnc3cc(F)nn3c21 (single isomer, unassigned) [Example 185] | < 10
C[C@]1(C(F)(F)F)C[C@H](C(=O)Nc2cnc(-n3nccn3)c(Cl)c2)c2cnc3cc(F)nn3c21 (single isomer, unassigned) [Example 187] | 10 to 100

Results, then the molecule that gave them:

IC50 [nM] | Compound
10 to 100 | N#Cc1cc(NC(=O)[C@H]2CC3(CCOCC3)c3c2cnc2cc(F)nn32)cnc1OC(F)F (single isomer, unassigned) [Example 146, N-(5-cyano-6-(difluoromethoxy)pyridin-3-yl)-2-fluoro-2′,3′,5′,6,6′,7-hexahydrospiro[cyclopenta[e]pyrazolo[1,5-a]pyrimidine-8,4′-pyran]-6-carboxamide]
≥ 1000 | N#Cc1cc(NC(=O)C2CC3(CCOCC3)c3c2cnc2cc(F)nn32)cnc1OC(F)F (single isomer, unassigned) [Example 147, N-(5-cyano-6-(difluoromethoxy)pyridin-3-yl)-2-fluoro-2′,3′,5′,6,6′,7-hexahydrospiro[cyclopenta[e]pyrazolo[1,5-a]pyrimidine-8,4′-pyran]-6-carboxamide]
≥ 1000 | CC(C)(O)c1ncc(NC(=O)C2CC3(CCC3)c3c2cnc2cc(F)nn32)cc1C(F)(F)F (single isomer, unassigned) [Example 153, 2′-fluoro-N-(6-(2-hydroxypropan-2-yl)-5-(trifluoromethyl)pyridin-3-yl)-6′,7′-dihydrospiro[cyclobutane-1,8′-cyclopenta[e]pyrazolo[1,5-a]pyrimidine]-6′-carboxamide]
≥ 1000 | CNC(=O)c1ncc(NC(=O)[C@@H]2CC(C)(C)c3c2cnc2cc(Cl)nn32)cc1C(F)(F)F (single isomer, unassigned) [Example 154, 2-chloro-8,8-dimethyl-N-(6-(methylcarbamoyl)-5-(trifluoromethyl)pyridin-3-yl)-7,8-dihydro-6H-cyclopenta[e]pyrazolo[1,5-a]pyrimidine-6-carboxamide]
10 to 100 | CNC(=O)c1ncc(NC(=O)C2CC(C)(C)c3c2cnc2cc(Cl)nn32)cc1C(F)(F)F (single isomer, unassigned) [Example 155, 2-chloro-8,8-dimethyl-N-(6-(methylcarbamoyl)-5-(trifluoromethyl)pyridin-3-yl)-7,8-dihydro-6H-cyclopenta[e]pyrazolo[1,5-a]pyrimidine-6-carboxamide]
≥ 1000 | Cc1cc2cc(F)c3c(n2n1)C(C)(C)C[C@H]3C(=O)Nc1cnc(-n2nccn2)c(Cl)c1 (single isomer, unassigned) [Example 156, N-(5-chloro-6-(2H-1,2,3-triazol-2-yl)pyridin-3-yl)-5-fluoro-2,8,8-trimethyl-7,8-dihydro-6H-cyclopenta[e]pyrazolo[1,5-a]pyridine-6-carboxamide]
≥ 1000 | C[C@H](O)c1cnn(-c2ncc(NC(=O)[C@@H]3CC4(CCC4)c4c3cnc3cc(Cl)nn43)cc2Cl)n1 (single isomer, unassigned) [Example 159]
≥ 1000 | CC1(C)C[C@@H](C(=O)Nc2cc(C#N)c(OC(F)F)cn2)c2cnc3cc(F)nn3c21 (single isomer, unassigned) [Example 169]
10 to 100 | CC1(C)C[C@H](C(=O)Nc2cc(C#N)c(OC(F)F)cn2)c2cnc3cc(F)nn3c21 (single isomer, unassigned) [Example 170]
10 to 100 | Cc1cc(NC(=O)[C@H]2CC(C)(C)c3c2cnc2cc(F)nn32)cnc1-n1nccn1 (single isomer, unassigned) [Example 183]
100 to 1000 | C[C@@]1(C(F)(F)F)C[C@@H](C(=O)Nc2cnc(-n3nccn3)c(Cl)c2)c2cnc3cc(F)nn3c21 (single isomer, unassigned) [Example 186]
